Where “and” joins values, the source holds several entries; their conditions need not be identical. Equal values may be shown once. Inconclusive results and toxic doses are left out.
Tested on: P388 leukemia ip, CD2F1 mice, survival T/C
Test: NCI In Vivo Anticancer Drug Screen. Data for tumor model P388 Leukemia (intraperitoneal) in CD2F1 (CDF1) mice
Conditions: endpoint: median survival time, higher = longer survival
Procedure, shortened: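 Mice carrying the transplanted tumor received test compound or vehicle. Survival was recorded in each group, and the value is the treated-group measurement divided by that of the vehicle-treated control group.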

[1] = dose: 50.0 mg/kg/injection, schedule: Q01DX005 (ip), vehicle: saline with Tween-80
[2] = dose: 100.0 mg/kg/injection, schedule: Q01DX005 (ip), vehicle: saline with Tween-80
[3] = dose: 200.0 mg/kg/injection, schedule: Q01DX005 (ip), vehicle: saline with Tween-80
[4] = dose: 50.0 mg/kg/injection, schedule: Q01DX009 (ip), vehicle: saline with Tween-80
[5] = dose: 100.0 mg/kg/injection, schedule: Q01DX009 (ip), vehicle: saline
[6] = dose: 60.0 mg/kg/injection, schedule: Q01DX005 (ip), vehicle: saline with Tween-80
[7] = dose: 120.0 mg/kg/injection, schedule: Q01DX005 (ip), vehicle: saline with Tween-80
[8] = dose: 240.0 mg/kg/injection, schedule: Q01DX005 (ip), vehicle: saline with Tween-80
[9] = dose: 50.0 mg/kg/injection, schedule: Q01DX005 (ip), vehicle: Klucel (hydroxypropylcellulose) (HPC)
[10] = dose: 60.0 mg/kg/injection, schedule: Q01DX005 (ip), vehicle: Klucel (hydroxypropylcellulose) (HPC)
[11] = dose: 120.0 mg/kg/injection, schedule: Q01DX005 (ip), vehicle: Klucel (hydroxypropylcellulose) (HPC)
[12] = dose: 25.0 mg/kg/injection, schedule: Q01DX005 (ip), vehicle: saline with Tween-80
[13] = dose: 100.0 mg/kg/injection, schedule: Q01DX005 (ip), vehicle: Klucel (hydroxypropylcellulose) (HPC)
[14] = dose: 50.0 mg/kg/injection, schedule: Q01DX009 (ip), vehicle: Klucel (hydroxypropylcellulose) (HPC)

SMILES: O=c1oc2ccc(Br)cc2cc1-n1nnc2cc([N+](=O)[O-])ccc21
- T/C [1]: 90 % of control
- T/C [2]: 89 % of control
- T/C [3]: 89 % of control

SMILES: O=S(=O)(Cc1cccc(C(F)(F)F)c1)c1nc2cccnc2s1
- T/C [4]: 103 % of control
- T/C (dose: 100.0 mg/kg/injection, schedule: Q01DX009 (ip), vehicle: saline with Tween-80): 103 % of control
- T/C (dose: 200.0 mg/kg/injection, schedule: Q01DX009 (ip), vehicle: saline with Tween-80): 101 % of control

SMILES: CCCC(C(=O)OC(C)CN1C(C)CCC1C)C1CCCC1 (configuration not stated)
- T/C [5]: 112 % of control
- T/C (dose: 200.0 mg/kg/injection, schedule: Q01DX009 (ip), vehicle: saline): 103 % of control
- T/C (dose: 400.0 mg/kg/injection, schedule: Q01DX009 (ip), vehicle: saline): 108 % of control

SMILES: Cc1c(-c2nnc(N)o2)cc([N+](=O)[O-])cc1[N+](=O)[O-]
- T/C [6]: 98 % of control
- T/C [7]: 100 % of control
- T/C [8]: 99 % of control

SMILES: COc1cc([N+](=O)[O-])c(S(=O)(=O)O)cc1NS(=O)(=O)c1ccc(C)cc1
- T/C [6]: 110 % of control
- T/C [7]: 101 % of control
- T/C [8]: 97 % of control

SMILES: Cc1cc(=O)[nH]c2ccc3ccccc3c12
- T/C (dose: 12.5 mg/kg/injection, schedule: Q01DX005 (ip), vehicle: Klucel (hydroxypropylcellulose) (HPC)): 91 % of control
- T/C (dose: 25.0 mg/kg/injection, schedule: Q01DX005 (ip), vehicle: Klucel (hydroxypropylcellulose) (HPC)): 91 % of control
- T/C [9]: 86 % of control

SMILES: O=Cc1cc(C=O)c2ccc(=O)[nH]c2n1
- T/C [10]: 109 % of control
- T/C [11]: 114 % of control

SMILES: COS(=O)(=O)OC1(SC)C=C(c2ccccc2)SS1 (configuration not stated)
- T/C (dose: 12.5 mg/kg/injection, schedule: Q01DX001 (ip), vehicle: saline): 96 % of control
- T/C (dose: 25.0 mg/kg/injection, schedule: Q01DX001 (ip), vehicle: saline): 109 % of control and 121 % of control
- T/C (dose: 50.0 mg/kg/injection, schedule: Q01DX001 (ip), vehicle: saline): 118 % of control and 122 % of control

SMILES: N#CN(Cc1ccccc1)Cc1ccccc1.[Cl][Sn]([c]1ccccc1)([c]1ccccc1)[c]1ccccc1
- T/C (dose: 3.12 mg/kg/injection, schedule: Q01DX005 (ip), vehicle: saline with Tween-80): 98 % of control
- T/C (dose: 6.25 mg/kg/injection, schedule: Q01DX005 (ip), vehicle: saline with Tween-80): 95 % of control

SMILES: CC12CCCN1C(=O)C1(C)CCCN1C2=O (configuration not stated)
- T/C (dose: 100.0 mg/kg/injection, schedule: Q04DX003 (ip), vehicle: saline): 101 % of control
- T/C (dose: 200.0 mg/kg/injection, schedule: Q04DX003 (ip), vehicle: saline): 98 % of control
- T/C (dose: 400.0 mg/kg/injection, schedule: Q04DX003 (ip), vehicle: saline): 97 % of control

SMILES: Cc1cc2cc3ccc(Cl)nn3c2nn1
- T/C [12]: 104 % of control
- T/C [1]: 99 % of control
- T/C [2]: 95 % of control
- T/C [3]: 96 % of control

SMILES: CC1(C)C(=O)c2ccccc2-c2ccccc21
- T/C [1]: 101 % of control
- T/C [2]: 104 % of control
- T/C [3]: 103 % of control

SMILES: O=c1cc(-c2ccccc2)[nH]c(=O)[nH]1
- T/C (dose: 25.0 mg/kg/injection, schedule: Q04DX003 (ip), vehicle: saline with Tween-80): 99 % of control
- T/C (dose: 50.0 mg/kg/injection, schedule: Q04DX003 (ip), vehicle: saline with Tween-80): 101 % of control
- T/C (dose: 100.0 mg/kg/injection, schedule: Q04DX003 (ip), vehicle: saline with Tween-80): 107 % of control

SMILES: CCC(=O)NC1=CCC(C(C)(C)C)CC1 (configuration not stated)
- T/C [1]: 102 % of control
- T/C [2]: 102 % of control

SMILES: CC1CC=[N+]([O-])C1(C)C (configuration not stated)
- T/C (dose: 12.5 mg/kg/injection, schedule: Q01DX009 (ip), vehicle: saline with Tween-80): 95 % of control
- T/C (dose: 25.0 mg/kg/injection, schedule: Q01DX009 (ip), vehicle: saline with Tween-80): 102 % of control
- T/C [4]: 102 % of control and 86 % of control

SMILES: COc1cc(/C=N\N=c2\sc3ccccc3n2C)ccc1OCCO
- T/C [6]: 92 % of control
- T/C [7]: 91 % of control
- T/C [8]: 91 % of control

SMILES: COc1cc(C(=O)NNC(=O)C2CCC(=O)N2Cc2ccccc2)cc(OC)c1OC (configuration not stated)
- T/C [6]: 89 % of control
- T/C [7]: 90 % of control
- T/C [8]: 87 % of control

SMILES: CCCCNc1ccc2nnc(C)n2n1
- T/C [9]: 103 % of control
- T/C (dose: 100.0 mg/kg/injection, schedule: Q01DX005 (ip), vehicle: DMSO): 98 % of control
- T/C [13]: 108 % of control
- T/C (dose: 200.0 mg/kg/injection, schedule: Q01DX005 (ip), vehicle: DMSO): 104 % of control
- T/C (dose: 200.0 mg/kg/injection, schedule: Q01DX005 (ip), vehicle: Klucel (hydroxypropylcellulose) (HPC)): 100 % of control

SMILES: CC1=CC(=O)C(O)C2(C)C1CC1OC(=O)CC3C(C)C(O)C4(O)OCC13C42 (configuration not stated)
- T/C (dose: 5.0 mg/kg/injection, schedule: Q01DX009 (ip), vehicle: Klucel (hydroxypropylcellulose) (HPC)): 107 % of control
- T/C (dose: 10.0 mg/kg/injection, schedule: Q01DX009 (ip), vehicle: Klucel (hydroxypropylcellulose) (HPC)): 117 % of control
- T/C (dose: 20.0 mg/kg/injection, schedule: Q01DX009 (ip), vehicle: Klucel (hydroxypropylcellulose) (HPC)): 123 % of control

SMILES: O=CC1CCC(c2ccc3ccccc3c2)O1 (configuration not stated)
- T/C [6]: 106 % of control
- T/C [7]: 114 % of control
- T/C [8]: 114 % of control

SMILES: COc1ccc(CC(NC(=O)NSc2ccccc2)C(=O)NC2C(CO)OC(n3cnc4c(N(C)C)ncnc43)C2O)cc1 (configuration not stated)
- T/C (dose: 12.5 mg/kg/injection, schedule: Q01DX005 (ip), vehicle: saline with Tween-80): 90 % of control
- T/C [12]: 93 % of control
- T/C [1]: 88 % of control and 91 % of control

SMILES: CCNC(=O)N1CC(=O)Nc2ccccc21
- T/C [1]: 101 % of control
- T/C [2]: 96 % of control

SMILES: CC(C)CCOCCOCCCN1C(=O)C2C3C=CC(C3)C2C1=O (configuration not stated)
- T/C [9]: 99 % of control
- T/C [13]: 100 % of control

SMILES: CCN1/C(=C/C=C2\CCC(/C=C/c3sc4ccc(Cl)cc4[n+]3CC)=C2N(c2ccccc2)c2ccccc2)Sc2ccc(Cl)cc21
- T/C (dose: 6.25 mg/kg/injection, schedule: Q01DX009 (ip), vehicle: Klucel (hydroxypropylcellulose) (HPC)): 156 % of control
- T/C [14]: 107 % of control

SMILES: C=C1C(=O)C23C(OC(=O)CCC)C1CCC2C12COC3(O)C(O)C1C(C)(C)CCC2O (configuration not stated)
- T/C (dose: 3.75 mg/kg/injection, schedule: Q01DX009 (ip), vehicle: saline with Tween-80): 102 % of control
- T/C (dose: 7.5 mg/kg/injection, schedule: Q01DX009 (ip), vehicle: saline with Tween-80): 101 % of control
- T/C (dose: 15.0 mg/kg/injection, schedule: Q01DX009 (ip), vehicle: saline with Tween-80): 107 % of control
- T/C (dose: 30.0 mg/kg/injection, schedule: Q01DX009 (ip), vehicle: saline with Tween-80): 111 % of control

SMILES: CN1CCc2c(n(C)c3ccccc23)C1=O
- T/C (dose: 25.0 mg/kg/injection, schedule: Q04DX002 (ip), vehicle: saline with Tween-80): 102 % of control
- T/C (dose: 50.0 mg/kg/injection, schedule: Q04DX002 (ip), vehicle: saline with Tween-80): 98 % of control
- T/C (dose: 100.0 mg/kg/injection, schedule: Q04DX002 (ip), vehicle: saline with Tween-80): 106 % of control
- T/C (dose: 200.0 mg/kg/injection, schedule: Q04DX002 (ip), vehicle: saline with Tween-80): 101 % of control
- T/C (dose: 400.0 mg/kg/injection, schedule: Q04DX002 (ip), vehicle: saline with Tween-80): 99 % of control

SMILES: Cc1ccc(I)c(C(C)(C)O)c1
- T/C [14]: 100 % of control
- T/C (dose: 100.0 mg/kg/injection, schedule: Q01DX009 (ip), vehicle: Klucel (hydroxypropylcellulose) (HPC)): 95 % of control
- T/C (dose: 200.0 mg/kg/injection, schedule: Q01DX009 (ip), vehicle: Klucel (hydroxypropylcellulose) (HPC)): 97 % of control

SMILES: O=S(=O)(O)c1ccc2cc3nn(-c4ccc(/C=C/c5ccc(-n6nc7cc8ccc(S(=O)(=O)O)cc8cc7n6)cc5S(=O)(=O)O)c(S(=O)(=O)O)c4)nc3cc2c1
- T/C (dose: 50.0 mg/kg/injection, schedule: Q01DX009 (ip), vehicle: saline): 97 % of control
- T/C [5]: 97 % of control

SMILES: CCC1(O)C(=O)OCc2c1cc1n(c2=O)Cc2ccccc2-1 (configuration not stated)
- T/C (dose: 100.0 mg/kg/injection, schedule: Q01DX001 (ip), vehicle: saline with Tween-80): 96 % of control
- T/C (dose: 200.0 mg/kg/injection, schedule: Q01DX001 (ip), vehicle: saline with Tween-80): 90 % of control
- T/C (dose: 400.0 mg/kg/injection, schedule: Q01DX001 (ip), vehicle: saline with Tween-80): 92 % of control

SMILES: S=c1nc(-c2nc(=S)[nH]c3c2CCCCC3)c2c([nH]1)CCCCC2
- T/C [10]: 97 % of control
- T/C [11]: 96 % of control
- T/C (dose: 240.0 mg/kg/injection, schedule: Q01DX005 (ip), vehicle: Klucel (hydroxypropylcellulose) (HPC)): 92 % of control

SMILES: COC(=O)c1nn(C)c(=O)[nH]c1=O
- T/C [1]: 103 % of control
- T/C [2]: 98 % of control
- T/C [3]: 100 % of control
